Laboratory results taken from ChEMBL document CHEMBL4483862, “Open-source discovery of chemical leads for next-generation chemoprotective antimalarials” (2018).

Tested on: Plasmodium berghei
Assay: Luciferase/luciferin-expressing antifolate-resistant parasites were used to infect a culture of HepG2 cells that were pre-incubated with compounds. Infected hepatocytes emit light due to the luciferase reaction. Assay results are presented as the percent inhibition of light emission compared to control. […]
Type: functional
Conditions: sporozoite; for IC90: read-out: LUCIFERASE INFECTION ASSAY - IC90
[1] = read-out: LUCIFERASE INFECTION ASSAY - IC50

In the case of `Cc1ccc(N2C(=O)c3ccccc3C(C=NNC(=O)c3ccc(CSc4ccc(Cl)cc4)cc3)C2=O)cc1C` (stereo not given), the IC50 (FFLUC_HILL_SLOPE 1.61, FFLUC_R_SQUARED 0.665, HEPG2TOX_HILL_SLOPE 1.11, HEPG2TOX_R_SQUARED 0.878, read-out: LUCIFERASE INFECTION ASSAY - IC50) is reported as over 10 µM and the IC90 is reported as over 10 µM.
Work on `CNC(=O)c1cnc(N2CCN(Cc3ccccc3C#N)C2=O)s1` yielded an IC50 [1] of over 10 µM and an IC90 of over 10 µM.
`CC1(C)CC(=O)c2cnc(SCC(=O)Nc3ccc(F)cc3F)nc2C1` showed an IC50 [1] of over 8.74 µM and an IC90 of over 8.74 µM.
In the case of `CN1CCN(C(=O)c2ccc(-c3cnc4cnc(/C=C/c5ccccc5)cn34)cc2)CC1`, the IC50 (HEPG2TOX_HILL_SLOPE 0.285, HEPG2TOX_R_SQUARED 0.311, PBLUC_HILL_SLOPE 1.14, PBLUC_R_SQUARED 0.7, read-out: LUCIFERASE INFECTION ASSAY - IC50) is reported as 3.11 µM and the IC90 is reported as over 7.79 µM.
`COc1ccc(/N=c2\scc(-c3ccc(OC(F)F)cc3)n2/N=C/c2ccccc2[N+](=O)[O-])cc1` gave an IC50 (FFLUC_HILL_SLOPE 12.1, FFLUC_R_SQUARED 0.633, PBLUC_HILL_SLOPE 109, PBLUC_R_SQUARED 0.183, read-out: LUCIFERASE INFECTION ASSAY - IC50) of 7.2 µM and an IC90 of 7.35 µM.
Compound `N#C/C(=N\Nc1ccc(Cl)cc1)S(=O)(=O)c1ccc(Cl)cc1` has an IC50 (HEPG2TOX_HILL_SLOPE 1.06, HEPG2TOX_R_SQUARED 0.975, PBLUC_HILL_SLOPE 5.18, PBLUC_R_SQUARED 0.893, read-out: LUCIFERASE INFECTION ASSAY - IC50) of 2.57 µM and an IC90 of 3.93 µM.
In the case of `NC(=O)c1cc(Cl)ccc1OCc1ccc(OC(F)(F)F)cc1`, the IC50 [1] is reported as over 10 µM and the IC90 is reported as over 10 µM.
In the case of `Cc1ccc(S(=O)(=O)Nc2ccc(C(=O)Nc3ncccc3O)cc2)cc1C`, the IC50 [1] is reported as 7.38 µM and the IC90 is reported as over 10 µM.
Compound `CSc1c(C#N)c(-c2ccc(Cl)cc2)nn1C(=O)C(C)C` has an IC50 (PBLUC_HILL_SLOPE 1.94, PBLUC_R_SQUARED 0.662, read-out: LUCIFERASE INFECTION ASSAY - IC50) of over 10.3 µM and an IC90 of over 10.3 µM.
Work on `O=C(CC1(C(F)(F)F)OCCO1)Nc1ccc(C(OC(=O)c2ccc(F)cc2)(C(F)(F)F)C(F)(F)F)cc1` yielded an IC50 [1] of over 10 µM and an IC90 of over 10 µM.
With `Cn1cnnc1C1CCCN(S(C)(=O)=O)C1` (stereo not given) the IC50 [1] was over 10 µM and the IC90 was over 10 µM.
In the case of `COc1cc(-c2ccnc3n[nH]c(-c4ccc(N(C)C)cc4)c23)cc(OC)c1OC`, the IC50 (PBLUC_HILL_SLOPE 14.6, PBLUC_R_SQUARED 0.557, read-out: LUCIFERASE INFECTION ASSAY - IC50) is reported as 3.12 µM and the IC90 is reported as 3.63 µM.
In the case of `CCc1cc(OCCCCCCN2CCC(C)CC2)ccc1Cl`, the IC50 (HEPG2TOX_HILL_SLOPE 8.01, HEPG2TOX_R_SQUARED 0.5, PBLUC_HILL_SLOPE 3.89, PBLUC_R_SQUARED 0.522, read-out: LUCIFERASE INFECTION ASSAY - IC50) is reported as 4.49 µM and the IC90 is reported as 7.91 µM.
Compound `FC(F)(F)Oc1cccc(-c2nc3ccnc(NCc4ccccn4)c3[nH]2)c1` has an IC50 (HEPG2TOX_HILL_SLOPE 0.276, HEPG2TOX_R_SQUARED 0.811, PBLUC_HILL_SLOPE 0.809, PBLUC_R_SQUARED 0.487, read-out: LUCIFERASE INFECTION ASSAY - IC50) of 2.04 µM and an IC90 of over 10 µM.
Compound `Cc1ccc(C(=O)Nc2nc3ccccn3c2C(=O)NC2CCCCC2)cc1` has an IC50 (HEPG2TOX_HILL_SLOPE 2.97, HEPG2TOX_R_SQUARED 0.276, PBLUC_HILL_SLOPE 14.7, PBLUC_R_SQUARED 0.56, read-out: LUCIFERASE INFECTION ASSAY - IC50) of 1 µM and an IC90 of 1.16 µM.
With `CCc1nc(SCC(=O)Nc2nsc(-c3ccc(C(C)(C)C)cc3)n2)c2c3c(sc2n1)CCC3` the IC50 (FFLUC_HILL_SLOPE 7.48, FFLUC_R_SQUARED 0.446, read-out: LUCIFERASE INFECTION ASSAY - IC50) was over 10 µM and the IC90 was over 10 µM.
`Fc1ccc(CNc2ccc(-c3nc4ccccc4[nH]3)cc2)cc1` showed an IC50 (PBLUC_HILL_SLOPE 15.3, PBLUC_R_SQUARED 0.322, read-out: LUCIFERASE INFECTION ASSAY - IC50) of 9.03 µM and an IC90 of over 10.4 µM.
Compound `O=C(NNC(=O)c1cc2c(s1)CCCCC2)c1ccccn1` has an IC50 (PBLUC_HILL_SLOPE 4.79, PBLUC_R_SQUARED 0.138, read-out: LUCIFERASE INFECTION ASSAY - IC50) of 5.28 µM and an IC90 of 8.35 µM.
Work on `Cc1ccc(-n2c(C)cc(C(=O)CNCc3ccccc3)c2C)cc1` yielded an IC50 (PBLUC_HILL_SLOPE 3.04, PBLUC_R_SQUARED 0.101, read-out: LUCIFERASE INFECTION ASSAY - IC50) of 9.63 µM and an IC90 of over 10 µM.
With `CCN(CC)S(=O)(=O)c1cc([N+](=O)[O-])ccc1NN=CC1C(=O)N(c2ccc(C)cc2)C(=O)c2ccccc21` (stereo not given) the IC50 (FFLUC_HILL_SLOPE 3.56, FFLUC_R_SQUARED 0.6, HEPG2TOX_HILL_SLOPE 2.69, HEPG2TOX_R_SQUARED 0.936, PBLUC_HILL_SLOPE 15.5, PBLUC_R_SQUARED 0.0701, read-out: LUCIFERASE INFECTION ASSAY - IC50) was 9.71 µM and the IC90 was over 10 µM.
In the case of `O=C(NCc1cn(-c2ccccc2)nc1-c1ccc(Cl)s1)c1ccccc1C(F)(F)F`, the IC50 (HEPG2TOX_HILL_SLOPE 3.63, HEPG2TOX_R_SQUARED 0.948, PBLUC_HILL_SLOPE 1.32, PBLUC_R_SQUARED 0.654, read-out: LUCIFERASE INFECTION ASSAY - IC50) is reported as 2.44 µM and the IC90 is reported as over 10 µM.
With `COc1cc(NC(=O)COC(=O)c2ccccc2Nc2ccc(SC(F)F)cc2)c(C)cc1[N+](=O)[O-]` the IC50 (HEPG2TOX_HILL_SLOPE 0.171, HEPG2TOX_R_SQUARED 0.654, read-out: LUCIFERASE INFECTION ASSAY - IC50) was over 10 µM and the IC90 was over 10 µM.
In the case of `CC(C)c1ccc2c(c1)/C(=N/Nc1ccc(S(=O)(=O)Nc3ccc(Cl)cc3)cc1[N+](=O)[O-])C(=O)N2`, the IC50 [1] is reported as over 10 µM and the IC90 is reported as over 10 µM.
`CCCCn1c(N)c(N(CC(C)C)C(=O)CCc2ncc(-c3ccc(C)cc3)o2)c(=O)[nH]c1=O` gave an IC50 [1] of over 10 µM and an IC90 of over 10 µM.
Compound `CC(C)Cc1ccc(CN2CCc3c(c(C(=O)N(C)Cc4cscn4)nn3CC3CC3)C2)cc1` has an IC50 (PBLUC_HILL_SLOPE 8.64, PBLUC_R_SQUARED 0.119, read-out: LUCIFERASE INFECTION ASSAY - IC50) of 5.84 µM and an IC90 of over 6.91 µM.
Work on `Cc1ccccc1Nc1nc(N)nc(CSc2nc(=O)c3c(-c4cccs4)csc3[nH]2)n1` yielded an IC50 [1] of over 10 µM and an IC90 of over 10 µM.
Work on `Cn1c(CSc2cccs2)n[nH]c1=S` yielded an IC50 (FFLUC_HILL_SLOPE 40, FFLUC_R_SQUARED 0.0342, read-out: LUCIFERASE INFECTION ASSAY - IC50) of over 13.6 µM and an IC90 of over 13.6 µM.
Work on `O=C1C(=O)N(Cc2ccccc2Cl)c2c1cccc2C(F)(F)F` yielded an IC50 (FFLUC_HILL_SLOPE 12, FFLUC_R_SQUARED 0.566, HEPG2TOX_HILL_SLOPE 13.8, HEPG2TOX_R_SQUARED 0.966, PBLUC_HILL_SLOPE 12.2, PBLUC_R_SQUARED 0.654, read-out: LUCIFERASE INFECTION ASSAY - IC50) of 3.09 µM and an IC90 of 3.7 µM.
With `CC(=O)O[C@]1(C(C)=O)CCC2C3C[C@H](C)C4=CC(=O)CCC4(C)C3CCC21C` (stereo not given in full) the IC50 (HEPG2TOX_HILL_SLOPE 11.5, HEPG2TOX_R_SQUARED 0.0757, read-out: LUCIFERASE INFECTION ASSAY - IC50) was over 8.54 µM and the IC90 was over 8.54 µM.
Work on `O=C(Nc1ccc(OC(F)(F)F)cc1)Nc1ccc2nc(-c3ccco3)nn2c1` yielded an IC50 (PBLUC_HILL_SLOPE 672, PBLUC_R_SQUARED 0.263, read-out: LUCIFERASE INFECTION ASSAY - IC50) of 7.48 µM and an IC90 of 7.51 µM.
For `CC(C(=O)OCC(=O)Nc1ccc(Cl)c2c1C(=O)c1ccccc1C2=O)N1C(=O)c2ccccc2C1=O` (stereo not given), the IC50 [1] was over 10 µM and the IC90 was over 10 µM.
In the case of `COc1ccc(-c2cnc3cnc(-c4ccco4)cn23)cc1`, the IC50 (HEPG2TOX_HILL_SLOPE 2.99, HEPG2TOX_R_SQUARED 0.923, PBLUC_HILL_SLOPE 3.57, PBLUC_R_SQUARED 0.717, read-out: LUCIFERASE INFECTION ASSAY - IC50) is reported as 4.15 µM and the IC90 is reported as 7.67 µM.
In the case of `COc1ccc(C2CC(=O)Nc3ccc4ccccc4c32)c(OC)c1OC` (stereo not given), the IC50 [1] is reported as over 9.08 µM and the IC90 is reported as over 9.08 µM.
`CC(=O)c1cccc(-c2cnc3ccc(-c4cccc(C(=O)NCCO)c4)nn23)c1` was tested, and the IC50 (HEPG2TOX_HILL_SLOPE 1.87, HEPG2TOX_R_SQUARED 0.674, PBLUC_HILL_SLOPE 4.19, PBLUC_R_SQUARED 0.651, read-out: LUCIFERASE INFECTION ASSAY - IC50) was 1.38 µM and the IC90 was 2.32 µM.
`COc1ccccc1C(=O)Nc1c(C#N)cnn1-c1nc(C)cc(C)n1` showed an IC50 (PBLUC_HILL_SLOPE 2.98, PBLUC_R_SQUARED 0.592, read-out: LUCIFERASE INFECTION ASSAY - IC50) of 3.8 µM and an IC90 of 7.94 µM.
`O=C(CSc1nnc(-c2ccccc2)o1)Nc1ncc(Cl)cc1Cl` showed an IC50 (HEPG2TOX_HILL_SLOPE 0.667, HEPG2TOX_R_SQUARED 0.783, PBLUC_HILL_SLOPE 16.1, PBLUC_R_SQUARED 0.672, read-out: LUCIFERASE INFECTION ASSAY - IC50) of 1.05 µM and an IC90 of 1.2 µM.
Work on `CC(=O)N1CCCC(c2cc(C(=O)Nc3ccccc3)no2)C1` (stereo not given) yielded an IC50 (FFLUC_HILL_SLOPE 1.94, FFLUC_R_SQUARED 0.745, PBLUC_HILL_SLOPE 0.811, PBLUC_R_SQUARED 0.626, read-out: LUCIFERASE INFECTION ASSAY - IC50) of 0.0959 µM and an IC90 of 1.44 µM.
Work on `OC1(c2ccccc2)c2ccccc2-c2ccccc21` yielded an IC50 [1] of 7.15 µM and an IC90 of over 12.8 µM.
Work on `Cc1cc(NNC(=O)Nc2cccc(Cl)c2)nc2c1c(C)nn2C` yielded an IC50 (HEPG2TOX_HILL_SLOPE 1.19, HEPG2TOX_R_SQUARED 0.796, PBLUC_HILL_SLOPE 1.82, PBLUC_R_SQUARED 0.0269, read-out: LUCIFERASE INFECTION ASSAY - IC50) of 5.86 µM and an IC90 of over 9.57 µM.
Compound `C=C(c1ccccc1)[n+]1ccc(C(=O)c2ccccc2)cc1` has an IC50 (HEPG2TOX_HILL_SLOPE 15.5, HEPG2TOX_R_SQUARED 0.47, PBLUC_HILL_SLOPE 4.11, PBLUC_R_SQUARED 0.394, read-out: LUCIFERASE INFECTION ASSAY - IC50) of 5.35 µM and an IC90 of over 9.01 µM.
